Experimental data reported in PubChem BioAssay (NCI).
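The compound was tested at five concentrations on cells cultured in 96-well plates, with a 48-hour exposure period. GI50 marks 50% less growth. Definition used: TGI = concentration required for complete inhibition of growth.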

Columns and labels:
Test in all cases: growth of human tumour cells (NCI), 48 h
[1] = tested on: UACC-257 melanoma
[2] = tested on: DU-145 prostate
[3] = tested on: NCI-H23 lung
[4] = tested on: SNB-75 CNS
[5] = tested on: COLO 205 colon
[6] = tested on: HCT-15 colon
[7] = tested on: MDA-MB-231 breast
[8] = tested on: HL-60(TB) leukemia
[9] = tested on: MOLT-4 leukemia
[10] = tested on: SF-268 CNS

Structure (SMILES) | TGI [1] | TGI [2] | TGI [3] | TGI [4] | TGI [5] | TGI [6] | TGI [7] | TGI [8] | TGI [9] | TGI [10] | GI50 [2] | GI50 [3] | GI50 [4] | GI50 [7]
O=C(O)C1CSC2(CCCN(Cc3ccccc3)C2)N1 (stereo unspecified) | > 100 µM | > 100 µM | > 100 µM | > 100 µM | > 100 µM | > 100 µM | > 100 µM | > 100 µM | > 59.9 µM | > 100 µM |  |  |  | 
O=[N+]([O-])c1ccc(Nc2cccc3c2[nH]c2c(-c4ccccc4)nccc23)c([N+](=O)[O-])c1 | > 100 µM |  | > 100 µM | > 100 µM | > 100 µM | > 100 µM |  | > 100 µM | > 100 µM | > 100 µM |  |  |  | 
Cc1nccn1S(=O)(=O)c1ccc(Cl)cc1 | > 100 µM | > 100 µM | > 100 µM | > 100 µM | 40.2 µM | > 100 µM | 78.9 µM | 60.5 µM | > 100 µM | > 100 µM |  |  |  | 
Cc1ccc(C(=O)N/N=C(\N=Nc2ccccc2C(=O)O)c2ccc(N(C)C)cc2)cc1 | > 100 µM |  | > 100 µM |  | > 100 µM | > 100 µM | > 100 µM | > 100 µM | > 100 µM | > 100 µM |  |  |  | 
ClC1=C(Cl)C2OC3C=CCC3OC2C(Cl)=C1Cl (stereo unspecified) | > 100 µM | > 100 µM | > 100 µM |  |  | > 100 µM | > 100 µM | > 100 µM | > 100 µM | > 100 µM |  |  |  | 
CNC(=O)C1OC(n2cnc3c(NCc4cccc(I)c4)nc(Cl)nc32)C(O)C1O (stereo unspecified) | 23.8 µM | 50.4 µM | 25.5 µM | 16.5 µM | 82.6 µM | 20.4 µM | 66.6 µM | > 100 µM | 53.3 µM | 23.5 µM |  |  |  | 
O=C(Cn1c(=O)oc2ccc(C(=O)c3cccc(Cl)c3)cc21)c1ccccc1 | > 100 µM | > 100 µM | > 100 µM | > 100 µM | > 100 µM | > 100 µM | > 100 µM | > 100 µM | > 100 µM | > 100 µM |  |  |  | 
O=C(O)c1cccc(S(=O)(=O)NN2C(=O)CSC2c2c(O)ccc3ccccc23)c1 (stereo unspecified) | > 100 µM | > 100 µM | 51.1 µM | > 100 µM | > 100 µM | > 100 µM | > 100 µM | 59.8 µM | 46.3 µM | 91.5 µM |  |  |  | 
N=C(N)c1ccc(-c2ccc(-c3ccc(Cl)cc3Cl)s2)nc1 |  | 3.27 µM | 3.19 µM | 2.83 µM |  |  | 3.26 µM |  |  |  | 1.85 µM | 1.65 µM | 1.43 µM | 1.68 µM
CCC(C)N1CN(c2ccccc2)C2(CCN(CCCC3(c4ccc(F)cc4)OCCO3)CC2)C1=O (stereo unspecified) | 4.24 µM | > 57.3 µM | 18.1 µM | 19.8 µM | 16.8 µM | 10.8 µM | 26.2 µM | 23 µM | 19.5 µM | 48.5 µM |  |  |  | 
Cn1c(-c2c(C3=CC(=O)N(c4ccccc4)C3=O)c3ccccc3n2C)cc2ccccc21 | > 100 µM | > 100 µM | > 100 µM | > 100 µM | > 100 µM | > 100 µM | > 100 µM | > 100 µM | > 100 µM |  |  |  |  | 
COc1ccc(C2=NN(c3nsc4ccccc34)C(=O)CC2)cc1 | > 100 µM |  | > 100 µM | > 100 µM | > 100 µM | > 100 µM |  | > 100 µM | > 100 µM | > 100 µM |  |  |  | 
COc1ccc(/C=C2\OC(=O)C(Cl)=C2c2ccc(OC)c(Cl)c2)cc1 | > 100 µM | > 100 µM | 44.9 µM | 63.4 µM | > 100 µM | > 100 µM |  | > 100 µM | > 100 µM | 44.3 µM |  |  |  | 
Cc1cc(S(=O)(=O)Nc2n[nH]c(Nc3ccccc3)n2)c(SSc2cc(Cl)c(C)cc2S(=O)(=O)Nc2n[nH]c(Nc3ccccc3)n2)cc1Cl | > 100 µM | > 100 µM | > 100 µM | > 100 µM | > 100 µM | > 100 µM | > 100 µM | 61.1 µM | > 100 µM | > 100 µM |  |  |  | 
Nc1c(C(=O)O)nnc2cc(Cl)ccc12 | > 100 µM | > 100 µM | > 100 µM | > 100 µM | > 100 µM | > 100 µM | > 100 µM | > 100 µM | > 100 µM | > 100 µM |  |  |  | 
CCc1n[nH]c(=O)[nH]1 | > 100 µM | > 100 µM | > 100 µM | > 100 µM | > 100 µM | > 100 µM | > 100 µM |  | > 100 µM | > 100 µM |  |  |  | 
CC1=NN(c2nc(N)nc(-c3cc4ccccc4oc3=N)n2)C(C)(C)C1 | 31.4 µM | 53.7 µM | 29.7 µM |  | 31.1 µM | 35.9 µM | 43.4 µM | 46.2 µM | 34.6 µM | 36.7 µM |  |  |  | 
CC1=C(C(=O)NCc2ccccc2)C(c2ccco2)C(C(=O)NCc2ccccc2)=C(C)N1 | > 100 µM |  | > 100 µM | > 100 µM | > 100 µM | > 100 µM |  | > 100 µM | > 100 µM | > 100 µM |  |  |  | 
COC(=O)C(CNC(=O)/C=C/c1ccc(OC(C)=O)c(OC(C)=O)c1)NC(=O)/C=C/c1ccc(OC(C)=O)c(OC(C)=O)c1 (stereo unspecified) | > 100 µM | > 100 µM | > 100 µM |  | > 100 µM | > 100 µM | > 100 µM |  | 81.5 µM | > 100 µM |  |  |  | 
CCOC(=O)CN1C(=O)C(=O)N(c2ccc(OC)c3ccccc23)C1=O | > 100 µM | > 100 µM | > 100 µM | > 100 µM | > 100 µM | > 100 µM |  | > 100 µM | > 100 µM | > 100 µM |  |  |  | 
CC(C)=C=CP(=O)(O)c1ccccc1 | > 100 µM | > 100 µM | > 100 µM | > 100 µM | > 100 µM | > 100 µM |  | > 100 µM |  | > 100 µM |  |  |  | 
O=S(=O)(O)c1cc(N=[N+]([O-])c2ccc(N=Nc3ccccc3)cc2S(=O)(=O)O)ccc1/C=C/c1ccc(N=[N+]([O-])c2ccc(N=Nc3ccccc3)cc2S(=O)(=O)O)cc1S(=O)(=O)O | > 100 µM |  | > 100 µM | > 100 µM | > 100 µM | > 100 µM |  | > 100 µM | > 100 µM | > 100 µM |  |  |  | 
Cc1cc(OCc2nnc3n2N=C(c2cc(F)c(Cl)cc2Cl)/C(=C/c2ccc(-c4ccc(Cl)cc4)o2)S3)ccc1Cl | > 50 µM | > 50 µM | > 50 µM |  | > 50 µM | > 50 µM | > 50 µM | > 50 µM | > 50 µM | > 50 µM |  |  |  | 
